Values quoted from earlier work, collected in patent publication US20100209332A1, “Nonaqueous Chlorine Dioxide-Generating Compositions and Methods Related Thereto” (BASF Catalysts LLC, priority 2009, published 2010).
Values joined by “and” are separate entries in the source; they are usually repeats but may differ in a detail not shown here. Equal entries are not always repeated.

Details: sources: † clippercontrols.com URL, § Handbook of Chemistry and Physics, 52nd Ed.

Compound | Dielectric Constant, at 18-25 deg C.
CCCCO [Butyl alcohol] | 17.1-17.8^†,§
OCC(O)CO [Glycerine] | 42.5^†,§
CCCCCCCC(=O)O [Octanoic acid] | 3.2^†
O [Water] | 80.4 and 78.5

More lines, now with the values ahead:

Dielectric Constant, at 18-25 deg C. | Compound
18.3 and 20.1 | CC(C)O [Isopropanol]
2.5^†,§ | CCCCCCCC/C=C\CCCCCCCC(=O)O [Oleic acid]
32^†,§ | CC(O)CO (stereo not shown) [Propylene glycol]
